Results as given in patent US20080153791A1, “11Beta -Hydroxysteroid Dehydrogenases” (onpharm GmbH, priority 2005, published 2008).
Read-outs that look alike come from different tables or passages of the source. Each block holds one compound with its values, some of them ahead of it.

Experiments:
human 11β-HSD1 [1] = molecular target: T1, human 11β-HSD1 (Homo sapiens, UniProt P28845); experiment: 11β-HSD1 reductase activity (cortisone to cortisol) in lysates of stably transfected HEK-293 cells; format: biochemical; details: for remaining activity at 20 µM: 20 μM compound, 100 nM cortisone, HEK-293 cell lysates, read-out: 11β-HSD1 % of control
T1 construct: expressed in transfected cells
Procedure: (§1) Cells were grown in 10 cm dishes to 80% confluence and incubated for 16 h in steroid-free medium (charcoal-treated fetal calf serum (FCS) from HyClone, Logan, Utah). Cells were rinsed once with phosphate-buffered saline (PBS), detached and centrifuged for 3 min at 150×g. The supernatant was removed and the cell pellet quick-frozen in a dry-ice ethanol bath. At the day of experiment, cell pellets were resuspended in buffer TS2 (100 mM NaCl, 1 mM EGTA, 1 mM EDTA, 1 mM MgCl2, 250 mM sucrose, 20 mM Tris-HCl, pH 7.4), sonicated and activities determined immediately. The rate of conversion of cortisol to cortisone or the reverse reaction was determined in 96-well optical PCR reaction plates (Applied Biosystems, Foster City, Calif.) in a final volume of 22 μl, and the tubes were capped during the reaction to avoid evaporation.
Reactions were initiated simultaneously by adding 10 μl of cell lysate and 12 μl of TS2 buffer containing the appropriate concentration of the inhibitory compound to be tested, NADPH, 30 nCi of [1,2,6,7-^3H]-cortisone and unlabeled cortisone, whereby final concentrations were 400 μM NADPH and 100 nM cortisone. Activities were determined immediately after cell disruption by measuring the conversion of radiolabeled cortisone to cortisol for 10 min.
(§2) Enzyme kinetics were analyzed by non-linear regression using Data Analysis Toolbox (MDL Information Systems Inc.) assuming first-order rate kinetics. Data represent mean ±SD of four to five independent experiments.
(§3) Assay with 20 μM of the corresponding compound in the reaction mixture, added simultaneously with the substrate:
(§4) Determination of IC50 values, using 7 different inhibitor concentrations at factor 2 intervals: […]

human 11β-HSD2 [2] = molecular target: T2, human 11β-HSD2 (Homo sapiens, UniProt P80365); experiment: 11β-HSD2 oxidase activity (cortisol to cortisone) in lysates of stably transfected HEK-293 cells; format: biochemical; details: for remaining activity at 20 µM: 20 μM compound, 25 nM cortisol, HEK-293 cell lysates, read-out: 11β-HSD2 % of control; for IC50: cell lysates, 7 inhibitor concentrations at factor 2 intervals
T2 construct: expressed in transfected cells
T2 sequence (P80365 1-405): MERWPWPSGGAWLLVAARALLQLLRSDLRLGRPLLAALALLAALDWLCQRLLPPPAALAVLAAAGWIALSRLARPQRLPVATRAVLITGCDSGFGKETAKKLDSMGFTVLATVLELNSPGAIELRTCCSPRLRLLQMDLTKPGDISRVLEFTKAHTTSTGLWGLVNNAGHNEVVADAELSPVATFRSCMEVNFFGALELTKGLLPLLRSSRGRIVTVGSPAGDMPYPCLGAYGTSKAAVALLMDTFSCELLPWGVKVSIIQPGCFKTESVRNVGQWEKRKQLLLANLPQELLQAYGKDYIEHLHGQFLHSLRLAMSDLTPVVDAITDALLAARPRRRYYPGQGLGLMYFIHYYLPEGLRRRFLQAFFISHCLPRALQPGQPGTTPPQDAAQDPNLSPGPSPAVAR
Procedure: as §1
Reactions were initiated by simultaneously adding 10 μl of cell lysate and 12 μl of TS2 buffer containing the appropriate concentration of the inhibitory compound to be tested, NAD^+, 30 nCi of [1,2,6,7-^3H]-cortisol and unlabeled cortisol. […] Stock solutions of the inhibitors in methanol or DMSO were diluted in TS2 buffer to yield the appropriate concentrations, whereby the concentration of methanol or DMSO in the reactions were kept below 0.1%. Control reactions with or without 0.1% of the solvent were performed. Incubation was at 37° C. for 10 min with shaking, reactions were terminated by adding 10 μl of stop solution containing 2 mM of unlabeled cortisol and cortisone dissolved in methanol. The conversion of radiolabeled cortisol was determined by separation of cortisol and cortisone using TLC and a solvent system of 9:1 (v/v) chloroform:methanol, followed by scintillation counting.
as §2, §3, §4

human 11β-HSD1 [3] = molecular target: T1, human 11β-HSD1; experiment: 11β-HSD1 activity in intact transfected HEK-293 cells; format: cell-based
Procedure: (§5) Human 11β-HSD1 and 11β-HSD2 activities were assessed in intact stably transfected HEK-293 cells. Per well of a 96-well plate 30,000 cells were seeded, followed by growth for 24 h in steroid-free DMEM medium. The total volume was 30 μl and contained 100 nM of radiolabeled cortisol or cortisone as substrate and the corresponding inhibitor at a final concentration between 0-200 μM. The reaction was performed in steroid-free medium in the absence of exogenous cofactor for 1 to 3 h at 37° C. The solvent was below 0.1% (DMSO). Reactions were stopped by adding unlabeled cortisol and cortisone dissolved in methanol (2 mM final). Steroids were separated by TLC and conversion determined by scintillation counting.
as §2

17β-HSD1 = molecular target: T3, 17β-HSD1 (Homo sapiens, UniProt P14061); experiment: Inhibition of 17β-HSD1; format: biochemical
T3 sequence (P14061 1-328): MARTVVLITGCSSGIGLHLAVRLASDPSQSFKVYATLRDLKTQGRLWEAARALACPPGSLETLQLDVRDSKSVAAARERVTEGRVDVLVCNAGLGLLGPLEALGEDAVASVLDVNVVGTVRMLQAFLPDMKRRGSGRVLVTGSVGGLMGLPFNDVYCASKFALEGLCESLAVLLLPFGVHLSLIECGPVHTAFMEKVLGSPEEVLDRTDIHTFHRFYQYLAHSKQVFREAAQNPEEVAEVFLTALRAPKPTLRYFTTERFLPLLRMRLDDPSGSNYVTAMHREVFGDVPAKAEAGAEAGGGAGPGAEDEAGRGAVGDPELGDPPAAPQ

17β-HSD2 = molecular target: T4, 17β-HSD2 (Homo sapiens, UniProt P37059); experiment: Inhibition of 17β-HSD2; format: biochemical
T4 sequence (P37059 1-387): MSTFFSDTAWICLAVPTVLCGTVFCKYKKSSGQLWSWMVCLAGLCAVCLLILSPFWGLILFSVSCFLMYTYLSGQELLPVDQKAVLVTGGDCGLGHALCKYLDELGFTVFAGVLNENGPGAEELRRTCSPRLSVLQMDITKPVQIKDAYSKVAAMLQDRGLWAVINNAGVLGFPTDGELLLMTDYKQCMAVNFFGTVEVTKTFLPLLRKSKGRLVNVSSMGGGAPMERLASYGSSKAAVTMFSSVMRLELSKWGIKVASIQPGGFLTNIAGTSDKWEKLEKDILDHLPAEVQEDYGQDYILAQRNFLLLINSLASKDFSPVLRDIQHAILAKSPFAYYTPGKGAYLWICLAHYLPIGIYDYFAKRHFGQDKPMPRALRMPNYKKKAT

human 11β-HSD2 [4] = molecular target: T2, human 11β-HSD2; experiment: 11β-HSD2 activity in intact transfected HEK-293 cells; format: cell-based; details: read-out: IC50 for 11β-HSD2 (determined in intact transfected HEK-293 cells)
Procedure: as §5, §2

human 11β-HSD1 [5] = molecular target: T1, human 11β-HSD1; experiment: 11β-HSD1 reductase activity (cortisone to cortisol) in lysates of stably transfected HEK-293 cells; format: biochemical; details: read-out: 11β-HSD1 % of control

T1 sequence (P28845 whole entry): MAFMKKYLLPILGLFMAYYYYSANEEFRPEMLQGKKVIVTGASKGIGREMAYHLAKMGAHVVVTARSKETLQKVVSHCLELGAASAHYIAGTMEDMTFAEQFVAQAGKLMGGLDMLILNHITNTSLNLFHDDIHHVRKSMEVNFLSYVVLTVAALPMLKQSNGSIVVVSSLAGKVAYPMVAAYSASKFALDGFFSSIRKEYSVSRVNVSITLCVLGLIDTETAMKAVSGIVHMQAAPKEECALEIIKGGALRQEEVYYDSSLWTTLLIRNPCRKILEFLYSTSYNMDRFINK

- remaining activity at 20 µM (human 11β-HSD1 [1]): 9.6%
- IC50 (human 11β-HSD1 [1]; cell lysates, 7 inhibitor concentrations at factor 2 intervals, experiment 1, read-out: IC 50 11β-HSD1, determination 1): 1950 nM
- IC50 (human 11β-HSD1 [1]; cell lysates, 7 inhibitor concentrations at factor 2 intervals, experiment 2, read-out: IC 50 11β-HSD1, determination 2): 1910 nM
- IC50 (human 11β-HSD1 [1]; cell lysates, 7 inhibitor concentrations at factor 2 intervals, experiment 3, read-out: IC 50 11β-HSD1, determination 3): 2240 nM
- inhibition of 11β-HSD2 (in words) (human 11β-HSD2 [2]): did not inhibit
- remaining activity at 20 µM (human 11β-HSD2 [2]): 140%
- inhibition of 11β-HSD2 (in words) (human 11β-HSD2 [2]; listed as 7): no inhibition
- IC50 (human 11β-HSD1 [3]; 11β-HSD1, intact HEK-293 cells, mean ± SD, read-out: IC50 in intact cells): 550 ± 50 nM
- inhibition of 17β-HSD1 (in words) (17β-HSD1): did not inhibit
- inhibition of 17β-HSD1 (in words) (17β-HSD1; listed as 7): no inhibition
- inhibition of 17β-HSD2 (in words) (17β-HSD2): did not inhibit
- inhibition of 17β-HSD2 (in words) (17β-HSD2; listed as 7): no inhibition
SMILES: COc1ccc(CCNC(=O)C23CCC(C)(C(=O)C2=O)C3(C)C)cc1OC (stereo not shown) [BNW7, 4,7,7-Trimethyl-2,3-dioxo-bicyclo[2.2.1]heptane-1-carboxylic acid [2-(3,4-dimethoxy-phenyl)-ethyl]-amide]

SMILES: CC(=O)OC1CC[C@]2(C)C3=C(C(=O)C[C@H]2C1(C)C)[C@]1(C)CCC(C(C)CCC(=O)O)[C@@]1(C)CC3=O (stereo partly drawn) [BNW16, 4-((5R,10S,13R,14R)-3-Acetoxy-4,4,10,13,14-pentamethyl-7,11-dioxo-2,3,4,5,6,7,10,11,12,13,14,15,16,17-tetradecahydro-1H-cyclopenta[a]phenanthren-17-yl)-pentanoic acid]
- remaining activity at 20 µM (human 11β-HSD1 [1]): 2.7%
- IC50 (human 11β-HSD1 [1]; IC 50 11β-HSD1, determination 1): 149 nM
- IC50 (human 11β-HSD1 [1]; IC 50 11β-HSD1, determination 2): 168 nM
- IC50 (human 11β-HSD1 [1]; IC 50 11β-HSD1, determination 3): 114 nM
- inhibition of 11β-HSD2 (in words) (human 11β-HSD2 [2]): no inhibition
- remaining activity at 20 µM (human 11β-HSD2 [2]): 27.4%
- IC50 (human 11β-HSD2 [2]; experiment 2, read-out: IC 50 11β-HSD2, determination 2): 4040 nM
- IC50 (human 11β-HSD2 [2]; experiment 3, read-out: IC 50 11β-HSD2, determination 3): 3870 nM
- IC50 (human 11β-HSD1 [3]): 2320 ± 330 nM
- IC50 (human 11β-HSD1 [3]; text b14, read-out: IC50 for 11β-HSD1 determined in intact transfected HEK-293 cells): 410 ± 80 nM
- IC50 (17β-HSD1): > 30000 nM
- inhibition of 17β-HSD1 (in words) (17β-HSD1): no inhibition
- IC50 (17β-HSD2): 28300 ± 5500 nM
- inhibition of 17β-HSD2 (in words) (17β-HSD2): no inhibition
- IC50 (human 11β-HSD2 [4]): > 50000 nM

- remaining activity at 10 µM (human 11β-HSD1 [5]): 4.4%
SMILES: CC1(C)[C@@H](OC(=O)CCC(=O)O)CC[C@]2(C)[C@H]3C(=O)C=C4[C@@H]5C[C@@](C)(C(=O)O)CC[C@]5(C)CC[C@@]4(C)[C@]3(C)CC[C@@H]12 [CBX, carbenoxolone]
